Experiments:
Staphylococcus aureus = assay: Antibacterial activity against Staphylococcus aureus; assay type: functional; settings: read-out: LD50 (the source's name)
Bacillus subtilis = assay: Antibacterial activity against Bacillus subtilis; assay type: functional; settings: read-out: LD50 (the source's name)

With `COC(=O)[C@@]12Oc3cc(C)c(-c4c(C)cc5c(c4O)C(=O)C4=C(O)C[C@@H](C)[C@@H](O)[C@@]4(CO[C@@H]4O[C@@H](C)[C@H](O)[C@@H](O)[C@H]4O)O5)c(O)c3C(=O)C1=C(O)[C@H](C)[C@@H](C)[C@@H]2O` [HIRTUSNEANOSIDE] the LC50 (Staphylococcus aureus) was 3.4 nM and the LC50 (Bacillus subtilis) was 14 nM.

Reference: ChEMBL document CHEMBL1141280, “Hirtusneanoside, an unsymmetrical dimeric tetrahydroxanthone from the lichen Usnea hirta” (2007)
